Results from PubChem BioAssay AID2060613 (Molecular Pharmacology Branch, DTP, NCI, 2025).
Several values for one entry are separate records, joined by “and”; a condition that tells them apart may be missing. Equal entries are not always repeated.

Tested on: 233499-124-R-J3-PDC complex spheroid viability
Test: Anticancer human tumor 233499-124-R-J3-PDC patient-derived colon adenocarcinoma cell line growth inhibition [CLK]
Conditions: for viability, T/C: stronger effect = lower value
How it was run: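 Multi-cell-type spheroids combined patient-derived tumor cells with HUVEC endothelial cells and human mesenchymal stem cells. Paired agents were dosed in half-log steps down from about clinical Cmax, or from 10 microM where Cmax was unknown.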

[1] = curve of first compound, second compound 0.0316 µM
[2] = curve of first compound, second compound 0.1 µM
[3] = curve of first compound, second compound 0.316 µM
[4] = curve of first compound, second compound 1 µM
[5] = curve of first compound, second compound 3.16 µM
[6] = curve of first compound, second compound 10 µM
[7] = second compound 0.0316 µM, first compound 0.0316 µM
[8] = second compound 0.0316 µM, first compound 0.1 µM
[9] = second compound 0.1 µM, first compound 0.0316 µM
[10] = second compound 0.1 µM, first compound 0.1 µM
[11] = second compound 0.316 µM, first compound 0.0316 µM
[12] = second compound 0.316 µM, first compound 0.1 µM
[13] = second compound 1 µM, first compound 0.0316 µM
[14] = second compound 1 µM, first compound 0.1 µM
[15] = second compound 3.16 µM, first compound 0.0316 µM
[16] = second compound 3.16 µM, first compound 0.1 µM
[17] = second compound 10 µM, first compound 0.0316 µM
[18] = second compound 10 µM, first compound 0.1 µM
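Note: spheroids exposed to the drug combinations for seven days.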
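Throughout, for viability, T/C: percent viability relative to DMSO vehicle control wells taken as 100%.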

`O=C(c1cc(Cc2n[nH]c(=O)c3ccccc23)ccc1F)N1CCN(C(=O)C2CC2)CC1` was tested, and the viability, T/C (compound 0.0316 µM) was 89.8% and 102%, the viability, T/C (compound 0.1 µM) was 91.5% and 89.6% and the viability, T/C (compound 0.316 µM) was 104%. For the same compound, the viability, T/C (compound 1 µM) was 105% and 92.8%, the viability, T/C (compound 3.16 µM) was 107% and the viability, T/C (compound 10 µM) was 86% and 115%. The IC50 (curve of compound) was over 10000 nM.
`Cn1ncnc1[C@H]1c2n[nH]c(=O)c3cc(F)cc(c23)N[C@@H]1c1ccc(F)cc1` + CNC(=O)c1ccc(Nc2nc(OC3CCCC3)c3c(-c4ccc5nc(C)oc5c4)c[nH]c3n2)c(OC)c1 showed an IC50 [1] of over 100 nM, an IC50 [2] of over 100 nM and an IC50 [3] of over 100 nM. It also gave an IC50 [4] of over 100 nM, an IC50 [5] of over 100 nM and an IC50 [6] of over 100 nM. It also gave a viability, T/C (second compound 0.0316 µM, first compound 0.000316 µM) of 91.3%, a viability, T/C (second compound 0.0316 µM, first compound 0.001 µM) of 96.5% and a viability, T/C (second compound 0.0316 µM, first compound 0.00316 µM) of 91%. The viability, T/C (second compound 0.0316 µM, first compound 0.01 µM) was 95.9%, the viability, T/C [7] was 110% and the viability, T/C [8] was 103%. The viability, T/C (second compound 0.1 µM, first compound 0.000316 µM) was 77.5%, the viability, T/C (second compound 0.1 µM, first compound 0.001 µM) was 71.4% and the viability, T/C (second compound 0.1 µM, first compound 0.00316 µM) was 77.2%. It also gave a viability, T/C (second compound 0.1 µM, first compound 0.01 µM) of 71.8%, a viability, T/C [9] of 78.8% and a viability, T/C [10] of 60.8%. The viability, T/C (second compound 0.316 µM, first compound 0.000316 µM) was 80.5%, the viability, T/C (second compound 0.316 µM, first compound 0.001 µM) was 75.5% and the viability, T/C (second compound 0.316 µM, first compound 0.00316 µM) was 58.6%. For the same compound, the viability, T/C (second compound 0.316 µM, first compound 0.01 µM) was 57.7%, the viability, T/C [11] was 66% and the viability, T/C [12] was 64.5%. The viability, T/C (second compound 1 µM, first compound 0.000316 µM) was 76.5%, the viability, T/C (second compound 1 µM, first compound 0.001 µM) was 87.3% and the viability, T/C (second compound 1 µM, first compound 0.00316 µM) was 79.8%. For the same compound, the viability, T/C (second compound 1 µM, first compound 0.01 µM) was 74.1%, the viability, T/C [13] was 56.8% and the viability, T/C [14] was 59.7%. The viability, T/C (second compound 3.16 µM, first compound 0.000316 µM) was 67.3%, the viability, T/C (second compound 3.16 µM, first compound 0.001 µM) was 69% and the viability, T/C (second compound 3.16 µM, first compound 0.00316 µM) was 69.3%. The viability, T/C (second compound 3.16 µM, first compound 0.01 µM) was 67.8%, the viability, T/C [15] was 72.8% and the viability, T/C [16] was 64.8%. The viability, T/C (second compound 10 µM, first compound 0.000316 µM) was 67.1%, the viability, T/C (second compound 10 µM, first compound 0.001 µM) was 56.3% and the viability, T/C (second compound 10 µM, first compound 0.00316 µM) was 74.3%. It also gave a viability, T/C (second compound 10 µM, first compound 0.01 µM) of 73.9%, a viability, T/C [17] of 50.5% and a viability, T/C [18] of 58.1%.
Work on `Nc1ccn(C2OC(CO)C(O)C2(F)F)c(=O)n1` (stereo unspecified) + CNC(=O)c1ccc(Nc2nc(OC3CCCC3)c3c(-c4ccc5nc(C)oc5c4)c[nH]c3n2)c(OC)c1 yielded an IC50 [1] of 71.3 nM, an IC50 [2] of 125 nM and an IC50 [3] of 121 nM. It also gave an IC50 [4] of 42.4 nM, an IC50 [5] of 39.9 nM and an IC50 [6] of 44.1 nM. The viability, T/C [7] was 80.5%, the viability, T/C [8] was 37.3% and the viability, T/C (second compound 0.0316 µM, first compound 0.316 µM) was 11.7%. The viability, T/C (second compound 0.0316 µM, first compound 1 µM) was 13.9%, the viability, T/C (second compound 0.0316 µM, first compound 3.16 µM) was 22.5% and the viability, T/C (second compound 0.0316 µM, first compound 10 µM) was 13.7%. The viability, T/C [9] was 56.8%, the viability, T/C [10] was 57.8% and the viability, T/C (second compound 0.1 µM, first compound 0.316 µM) was 18.3%. It also gave a viability, T/C (second compound 0.1 µM, first compound 1 µM) of 22%, a viability, T/C (second compound 0.1 µM, first compound 3.16 µM) of 18.2% and a viability, T/C (second compound 0.1 µM, first compound 10 µM) of 18.3%. For the same compound, the viability, T/C [11] was 65.2%, the viability, T/C [12] was 56.8% and the viability, T/C (second compound 0.316 µM, first compound 0.316 µM) was 15.7%. It also gave a viability, T/C (second compound 0.316 µM, first compound 1 µM) of 8.6%, a viability, T/C (second compound 0.316 µM, first compound 3.16 µM) of 14.8% and a viability, T/C (second compound 0.316 µM, first compound 10 µM) of 14.3%. It also gave a viability, T/C [13] of 63%, a viability, T/C [14] of 12% and a viability, T/C (second compound 1 µM, first compound 0.316 µM) of 13.7%. For the same compound, the viability, T/C (second compound 1 µM, first compound 1 µM) was 9.36%, the viability, T/C (second compound 1 µM, first compound 3.16 µM) was 10.2% and the viability, T/C (second compound 1 µM, first compound 10 µM) was 8.84%. For the same compound, the viability, T/C [15] was 53.5%, the viability, T/C [16] was 36% and the viability, T/C (second compound 3.16 µM, first compound 0.316 µM) was 11.4%. The viability, T/C (second compound 3.16 µM, first compound 1 µM) was 5.38%, the viability, T/C (second compound 3.16 µM, first compound 3.16 µM) was 6.79% and the viability, T/C (second compound 3.16 µM, first compound 10 µM) was 5.11%. The viability, T/C [17] was 53.4%, the viability, T/C [18] was 41.7% and the viability, T/C (second compound 10 µM, first compound 0.316 µM) was 11.5%. The viability, T/C (second compound 10 µM, first compound 1 µM) was 6.13%, the viability, T/C (second compound 10 µM, first compound 3.16 µM) was 5.83% and the viability, T/C (second compound 10 µM, first compound 10 µM) was 4.84%.
